Read-outs that look alike come from different tables or passages of the source.
How the values were obtained:
[1] = Phase solubility study of G-Re with CDs in water; type: physicochemical; settings: for stability constant Ks: G-Re with the CD, 1:1 stoichiometry; for △G: Gibbs free energy change of complexation with G-Re, ΔG = −RTln Ks; for Ks: apparent stability constant of G-Re with the CD, Ks=slope/S0(1-slope); for Ks / 1/Slope / Slope: water, 25 °C; for 1/Slope: phase solubility of G-Re; for Slope: slope of phase solubility curve of G-Re vs CD concentration
Protocol: Phase solubility studies were performed in water in accordance with the method formerly stated by Higuchi and Connors. In brief, an excess amount of G-Re was supplemented into 10 mL Eppendorf tubes with aqueous solution, including various concentrations of α-CD, β-CD, and γ-CD, respectively. Suspensions were vigorously shaken in 25 °C water bath for a week. After equilibrium was reached, the solutions were centrifuged for 5 min at 4000 rpm (1500 g). Meanwhile, a 0.22 μm membrane was used to further filter the supernatant. The filtrate was diluted and HPLC was employed to determine G-Re content.
The phase solubility curves were obtained with the regression of the concentrations of cyclodextrin (mol L^−1) as X-axis and the concentration of G-Re (mol L^−1) as Y-axis. The value of apparent stability constant (Ks) was defined by using the straight-line portion in the phase-solubility to the equation as follows: Ks=slope/S0(1-slope)
In this formula, R can be seen as the general gas constant, which equaled 8.314 J/mol K, and T can be considered as the experimental operating temperature.
(§1) The contents of G-Re from the dissolution sample and phase solubility sample were determined with the help of HPLC on the C18 column (Ascentis® Express, 10 cm × 2.1 mm, 2.6 μm, Sigma, USA), which was installed an Agilent system. This system consisted of a micro degasser, an auto plate sampler, a system binary pump, as well as a thermostatically controlled column apartment at 30 °C. Samples were separated under elution conditions at A (acetonitrile) and B (water) = 19: 81 (v/v). Then, the flow rate was set at 0.5 mL per minute and the injection volume at 5 μL, while the G-Re was detected spectrophotometrically at 205 nm.

[2] = Dissolution test in water (rotatory-basket method); type: physicochemical; settings: at 30 min, 37 °C, 100 rpm, 20 mg as Re in 200 mL
Protocol: G-Re, G-Re-γ-CD physical mixtures, and the G-Re-γ-CD ICs (20 mg as Re) were inserted into a basket in a automatic dissolution testing system (RC806D, Tianjin Tianda Technology Co.,Ltd, Tianjin, China) containing 200 mL of water according to the dissolution method (Chp. 2020 Vol II Addium XC rotatory-basket method). The speed was set at 100 rpm, and the temperature was 37 ± 0.5 °C. Then an equal amount of solution (1 mL) needed to be taken at timepoints of 5, 15, 30, 45, and 60 min; at the same time, 1 mL solution should be replaced. As described below, the determination of G-Re concentration by 205 nm high-performance liquid chromatography was feasible. The G-Re concentration was detected with the same HPLC method applied in the phase solubility test.
as §1

[3] = Pharmacokinetic / bioavailability study after single oral administration, plasma LC-MS/MS; type: in vivo, Sprague-Dawley rats; settings: rats, 100 mg/kg, mean ± SD
Protocol: The animal studies carried out in this study strictly followed the instructions of the Animal Care and Use Committee of the Changchun university of Chinese medicine (Approval Number: 20190030). Adult male Sprague-Dawley rats (200-220 g; Yisi Experimental Animal Technology Co., Ltd., Changchun, China Approved number: SCXK (JI) 2018-0007) were used for the pharmacokinetic studies. All rats were not allowed to be fed for 24 h before the oral dosing and likewise after the drug administration. Besides, all of them needed to be brought up under a controlled temperature ranging from 20 to 24 °C with a 12-h light/dark cycle. G-Re powder and G-Re-γ-CD complex were suspended in double-distilled water prior to use at 100 mg/kg. […] The blood samples were centrifuged for 10 min at 4000 rpm to harvest the plasma sample (100 μL). Then, the G-Rf (10 μL, 10 ng/mL) was added into each tube rapidly to work as the inherent criterion. After that, a mixed 0.5 mL methanol-acetonitrile (60:40, v/v) should be added for precipitating proteins and extracting interested compounds. The samples were then rotated for 3 min and centrifuged at 15,000×grams for 10 min. By separating and evaporating, the supernatant was obtained on the condition that the nitrogen flow dried gently at 40 °C. Additionally, the residue was reconstituted by vortexing for 1 min with 0.2 mL methanol-water (80:20, v/v). Furthermore, the supernatant was transferred into auto-sampler vials using 5 μL aliquot to inject to the LC-MS/MS system. This method could be carried out by a combination of a Thermo TSQ Endura triple-quadrupole tandem mass spectrometer (Thermo Fisher Inc., Waltham, USA), which is a method named electrospray ionization (ESI), and an Ultimate 3000 LC system which is composed of a vacuum degasser, a quaternary pump, as well as an auto-sampler. Xcalibur 2.2 (SP1.48) software was used to acquire and analyze the data (Thermo Fisher Inc., Waltham, USA). After that, the separation of chemical materials was conducted by using the reverse-phase Accucore C18 analytical column (100 mm × 2.1 mm, 2.6 μm, Thermo Fisher Inc., Waltham, USA). This column was available for the linear gradient elution by using the mobile phase, which consisted of water embracing 0.1% formic acid (A) and acetonitrile (B). Steps are described as follows: 0 min (A 75%-B 25%)-5.0 min (A 70%-B 30%)-8 min (A 68%-B 32%)-9 min (A 64%-B 36%)-16 min (A 63%-B 37%)-16.8 min (A 52%-B 48%)-17.8 min (A 30%-B 70%)-18.8 min (A 10%-B 90%)-20.8 min (A 75%-B 25%)-25 min (A 75%-B 25%). The flow rate should be 0.2 mL per minute, and the volume of injection needed to be 5 μL. This process needed to be performed using the ESI negative ionization and multiple reactions monitoring (MRM) mode. Furthermore, the parameters of spray voltage were 3 kV, the parameters of capillary temperature was 325 °C, and the pressure of nitrogen sheath gas and auxiliary gas were 30 arb and 10 arb. The formic acid adduct [M+HCOO]- is the dominant parent ion of products. […] Finally, the ion transition situations for multiple reactions monitoring (MRM) were m/z 945.5→637.3 and 637.3→475.3 for G-Re, m/z 799.5→637.3 and 637.3→475.3 for IS. After oral administration, non-compartment approaches could be utilized [NT]-Re's t pharmacokinetic parameters. The part under the plasma concentration-time curve increasing from 0 to infinity (AUC0→∞) could be computed by the equation AUC0→∞ = AUCt + Ct/k. In this equation, Ct could be seen as the last concentration which could be quantized, and the calculation of k could be conducted by a straight-line's slope in plasma disappearance's terminal phase. […] Furthermore, with the help of linear trapezoidal approximation, it was easy to calculate the area below the plasma concentration-time curve increasing from 0 to the time of the last quantifiable concentration (AUCt). The calculation of bioavailability value for G-Re's oral doses needed to be conducted according to the AUC's dose-adjusted ratio. […]

[4] = design: method as in PMID 22314249, PMID 25197955, PMID 19729261; settings: after oral administration; cited from earlier work
[5] = male, Sprague-Dawley, rat, plasma, n = 6

Row | stability constant Ks [1] | △G [1] | Ks [1] | 1/Slope [1] | Slope [1] | inclusion constant relative to that of α-CD ([1]; G-Re as guest) | SMILES | dissolution rate [2] | AUC(0-inf) [3, 5] | Cmax [3, 5] | MRT [3, 5] | half-life [3, 5] | tmax [3, 5] | AUC(0-t) ([3]; male, Sprague-Dawley, rat, plasma, n = 6, called AUC0–t, read-out: AUC0–24h) | CLt ([3]; n = 6) | Vdss ([3]; n = 6) | bioavailability [4] | tmax [4]
1 | 612 M⁻¹ | -15.889 kJ/mol | 612 M⁻¹ | 5.16 | 0.1935 | – | OC[C@H]1O[C@@H]2O[C@H]3[C@H](O)[C@@H](O)[C@@H](O[C@H]4[C@H](O)[C@@H](O)[C@@H](O[C@H]5[C@H](O)[C@@H](O)[C@@H](O[C@H]6[C@H](O)[C@@H](O)[C@@H](O[C@H]7[C@H](O)[C@@H](O)[C@@H](O[C@H]8[C@H](O)[C@@H](O)[C@@H](O[C@H]1[C@H](O)[C@H]2O)O[C@@H]8CO)O[C@@H]7CO)O[C@@H]6CO)O[C@@H]5CO)O[C@@H]4CO)O[C@@H]3CO [β-CD] | – | – | – | – | – | – | – | – | – | – | –
2 | – | -23.736 kJ/mol | 14410 M⁻¹ | 1.18 | 0.8494 | 655 times | OC[C@H]1O[C@@H]2O[C@H]3[C@H](O)[C@@H](O)[C@@H](O[C@H]4[C@H](O)[C@@H](O)[C@@H](O[C@H]5[C@H](O)[C@@H](O)[C@@H](O[C@H]6[C@H](O)[C@@H](O)[C@@H](O[C@H]7[C@H](O)[C@@H](O)[C@@H](O[C@H]8[C@H](O)[C@@H](O)[C@@H](O[C@H]9[C@H](O)[C@@H](O)[C@@H](O[C@H]1[C@H](O)[C@H]2O)O[C@@H]9CO)O[C@@H]8CO)O[C@@H]7CO)O[C@@H]6CO)O[C@@H]5CO)O[C@@H]4CO)O[C@@H]3CO [γ-CD] | – | – | – | – | – | – | – | – | – | – | –
3 | 22 M⁻¹ | -7.659 kJ/mol | 22 M⁻¹ | 116.28 | 0.0086 | – | OC[C@H]1O[C@@H]2O[C@H]3[C@H](O)[C@@H](O)[C@@H](O[C@H]4[C@H](O)[C@@H](O)[C@@H](O[C@H]5[C@H](O)[C@@H](O)[C@@H](O[C@H]6[C@H](O)[C@@H](O)[C@@H](O[C@H]7[C@H](O)[C@@H](O)[C@@H](O[C@H]1[C@H](O)[C@H]2O)O[C@@H]7CO)O[C@@H]6CO)O[C@@H]5CO)O[C@@H]4CO)O[C@@H]3CO [α-CD] | – | – | – | – | – | – | – | – | – | – | –
4 | – | – | – | – | – | – | CC(C)=CCC[C@](C)(O[C@@H]1O[C@H](CO)[C@@H](O)[C@H](O)[C@H]1O)[C@H]1CC[C@]2(C)[C@@H]1[C@H](O)C[C@@H]1[C@@]3(C)CC[C@H](O)C(C)(C)[C@@H]3[C@@H](O[C@@H]3O[C@H](CO)[C@@H](O)[C@H](O)[C@H]3O[C@@H]3O[C@@H](C)[C@H](O)[C@@H](O)[C@H]3O)C[C@]12C [G-Re, Ginsenoside Re] | 6.73% | 130 ± 54.1 ng·h/mL | 32.2 ± 8.15 ng/mL | 5.15 ± 0.968 h | 730 ± 93.4 min | 1.02 ± 0.036 h | 113 ± 44.6 ng·h/mL | 2.401 ± 0.52 L/h | 13.691 ± 3.74 L/kg | low | short

— paper PMC8659091, “Preparation, Characterization, and Bioavailability of Host-Guest Inclusion Complex of Ginsenoside Re with Gamma-Cyclodextrin” (Molecules, 2021)
